Consider two compounds from patent US20210338661A1, “NEW USES OF A PURE 5-HT 6 RECEPTOR ANTAGONIST” (SUVEN LIFE SCIENCES LIMITED, priority 2017, published 2021).

For one test, the system named is Male Wistar rats. Kind of test: Object recognition task in doxorubicin-treated rats (in vivo model for chemotherapy-induced cognitive impairment). The following applies: DOX 2.5 mg/kg, i.p. treated male Wistar rats; SUVN-502 1 and 10 mg/kg, p.o.; FIG. 6. Details: species or system rat. On the procedure: Male Wistar rats (230-280 g) were used as experimental animals. Four animals were housed in each cage. Rats were acclimatized for 7 days (Days 1-7) to the laboratory conditions. Chemotherapy-induced cognitive impairment was induced by injecting doxorubicin (DOX) at 2.5 mg/kg, i.p. once in every 5 days up to 8 cycles (days 8-49). […] On experimental day 50, following 60 min of formulation dosing, animals were habituated to the arenas for 45 min. On day 51, animals were treated with their respective formulations 60 min prior to the familiarization trial (T1) during which rats was presented with two similar objects i.e., silver Milton flasks (a1 and a2) for 3 min. After an interval of 30 min, rats were subjected to choice trial (T2), with one familiar (silver, a3) and one novel (red, b) object for a period of 3 min. During the T1 and T2 trials, exploration time of each object (defined as sniffing, licking, chewing or having moving vibrissae whilst directing the nose towards the object at a distance of less than 1 cm) were recorded separately by hand held stop watch. • Reference: Behavioural Brain Research, 1988, 31, 47-59.

Another test deals with BCCL rats. The experiment in a line: Contextual fear conditioning in bilateral common carotid artery ligated rats (in vivo model for vascular dementia). Also on record: species or system rat. The following applies: 3 and 10 mg/kg, p.o., 60 min post dose, FIG. 5. From the text: Contextual Fear Conditioning (In Vivo Model for Vascular Dementia): Male Wistar rats of age 2-3 months were used. Rats were induced vascular dementia by surgical procedure, which involves bilateral common carotid artery ligation (BCCL). Briefly, rats were anaesthetized using 2-5% isoflurane gaseous anesthesia. A dorsal incision was made near the neck region and two bilateral common carotid arteries were exposed. Both the arteries were separated from their sheaths and vagal nerves, and permanently ligated using 4-0 silk sutures. Sham animals were subjected to surgery except for ligation. After an induction period of 14 days, rats were examined in fear conditioning task. On day 1, rats were placed in the behavioral chamber and allowed to acclimatize for 1 min. Post acclimatization rats received a conditioned stimulus (CS) (tone for 10 sec) followed by an unavoidable foot shock (unconditioned stimulus (US): electric shock of 0.4 mA for 1 sec). Following a 40 sec interval between each administration, tone and shock were repeated to deliver a total of six CS-US pairings. […] After post dose interval of 60 min, animals were scored for the duration of freezing without shock stimulus. Shocking and scoring was controlled by Freeze frame software.

A further test has as its system Aged rats. Kind of test: Morris water maze task in aged rats (in vivo model for senile dementia). Details: species or system rat. The following applies: 10 mg/kg, p.o. On the procedure:
Morris Water Maze Task (In Vivo Model for Senile Dementia): The water maze apparatus consisted of a circular pool (1.8 m diameter, 0.6 m high) constructed in black perspex (TSE, systems, Germany) filled with water (24° C.). The maze was positioned underneath a wide-angled video camera. A 16 cm diameter perspex platform, lying 1 cm below the water surface, was placed in the center of one of the four imaginary quadrants, which remained constant for all rats. The maze offered no intra-maze cues to guide the escape behavior, however, the training room offered several strong extra maze visual cues to aid escape learning. An automated tracking system (Videomot 2 (5.51), TSE systems, Germany) was employed to track animal and record the parameters. […] Aged rats (˜80 weeks old) were placed facing the wall of the maze and lowered gently, feet first into water. Rats were allowed to swim for 60 seconds to find the platform. If the platform was found during this time, the trial was stopped and rat was allowed to stay on platform for 10 seconds before being removed from the maze. If the platform was not found during the 60 seconds trial, rat was guided to the platform and allowed to stay on platform for 10 seconds before being removed from the maze. The rats were taken off the platform ensuring that the rat see the investigator's hand from the front before removal. They were dried gently with a towel. Each rat received 4 trials in a day. The maze has 8 starting points. On the first, third and fifth day the animals started from 1st, 3rd, 5th and 7th starting point and on the second and fourth day the animals started from 2nd, 4th, 6th and […]. […] Retention of the task was assessed on 10th day, during which each animal received a single 30 seconds probe trial. […] Latency to reach the platform (s), swim speed (cm/s) and path length (cm) were recorded during acquisition trials. Percentage time spent in target quadrant (quadrant in which platform was placed during acquisition training) and swim speed (cm/s) were recorded for the probe trial.

For test [1], the system named is ovariectomized female Wistar rats. Kind of test: Object recognition task in ovariectomized rats (in vivo model for dementia due to menopause). Also on record: species or system rat. The following applies: SUVN-502 1, 3 and 10 mg/kg, p.o. one hour prior to evaluation, FIGS. 1 and 2. On the procedure:
Object Recognition Task (In Vivo Model for Dementia Due to Menopause) Bilateral ovariectomy surgery was carried out in 7-8 weeks old female rats. Briefly, animals were anesthetized using Avertin (2,2,2-tri bromo ethanol) at 150 mg/kg, i.p. and were lay down on the surgery table. A midline incision was given on the dorsal region below the rib cage and 1 cm lateral to the either side of midline, a small incision was given on fascia to locate the adipose fat supporting the ovaries. By slowly pulling out the fat tissue, the ovary is identified and excised following the uterine horn ligation with silk sutures. Fascia was also covered with sutures and the similar procedure was repeated on the other side. Superficial skin layers were sutured and gentamicin (15 mg/kg, s.c.) was given as antibiotic and meloxicam (1 mg/kg, i.m.) as analgesic with povidone iodine applied on superficial skin layers at last. Episodic memory which is a memory of autobiographical events contextual in relation to time, place etc. was assessed 4 weeks after the surgery using object recognition task. Object recognition task was carried out using black circular arenas (50 cm height×50 cm diameter) made of PVC laminates. […] Discriminative index was calculated as ratio of time spent exploring the novel object divided by sum of time spent exploring the novel object and familiar object in choice trial.

For another test, the system named is CD1 mice. Kind of test: Resident intruder task (in vivo model for aggression due to dementia). Details: species or system mouse. The following applies: 1, 3 and 10 mg/kg, p.o., 60 minutes prior to the trial, FIG. 4. How it is done: Resident Intruder Task (In Vivo Model for Aggression Due to Dementia): Male CD1 mice of weight 20-35 g (Resident), 15-25 g (Intruder) and ovariectomized female mice (20-25 g) were used. Resident mice were habituated individually with ovariectomized female mice in each cage. β-estradiol at a dose of 0.2 mg/kg, s.c. was administered to female mice during habituation. Intruders were habituated socially for 1 week. On day 1 and day 2, intruder was exposed to resident mice in resident's home cage for a period of 10 minutes and duration of attack was recorded. During this exposure period, female mice were removed from the cage. On day 4, animals were randomized based on their duration of attack and respective treatments were administered. […] After post dose interval, resident mice were exposed to same intruder for 10 min and duration of attack was recorded.

With `COc1ccc2c(c1)c(CN1CCN(C)CC1)cn2S(=O)(=O)c1ccccc1Br` [SUVN-502, 1-[(2-Bromophenyl)sulfonyl]-5-methoxy-3-[(4-methyl-1-piperazinyl)methyl]-1H-indole dimesylate monohydrate], in the test on Male Wistar rats, the “novel object recognition (exploration time, novel versus familiar object)” value was “increased novel object recognition”. In addition, the “memory (duration of freezing)” value with BCCL rats was “improved the memory”. Besides, the “path length versus vehicle treated group” value in the test with Aged rats (aged rats (~80 weeks old), acquisition days 3, 4 and 5, p<0.05, p<0.01) is given as “significantly lesser”. Also, in the test on Aged rats (aged rats, days 3, 4 and 5, statistically significant (p<0.05, p<0.01) only on day 3 and 5), the “target latency versus vehicle treated group” value was “also lesser”. The “time in the target quadrant during the probe trial versus vehicle” value in the test on Aged rats (aged rats, probe trial on 10th day, p<0.05) was “more time in the target quadrant”. The “effect on object memory deficits” value in test [1] is given as “reversed the object memory deficits”. In the test on CD1 mice, the “aggression levels (duration of attack)” value is reported as “decreased the aggression levels”.

In the case of `COc1cc2c(cc1OC)C(=O)C(CC1CCN(Cc3ccccc3)CC1)C2` (centres unmarked) [donepezil, reference compound], the “effect on object memory deficits” value in test [1] was “did not reverse the object memory deficits”.
